Data taken from publication PMC9037111, “Structure-based design, synthesis, and biological evaluation of novel piperine–resveratrol hybrids as antiproliferative agents targeting SIRT-2” (RSC Advances, 2021).
Read-outs that look alike come from different tables or passages of the source.

Key:
Assay in all cases: cells
Parameters in all cases: species or system NCI-60 human tumour cell lines; NCI-60 one-dose screen at 10 uM, percent growth inhibition versus untreated control cells
MCF7 = details: Homo sapiens, MCF7, growth inhibition, one dose
CAKI-1 = details: Homo sapiens, CAKI-1, growth inhibition, one dose
SF-268 = details: Homo sapiens, SF-268, growth inhibition, one dose
RXF 393 = details: Homo sapiens, RXF 393, growth inhibition, one dose
HT29 = details: Homo sapiens, HT-29, growth inhibition, one dose
NCI-H23 = details: Homo sapiens, NCI-H23, growth inhibition, one dose
TK-10 = details: Homo sapiens, TK-10, growth inhibition, one dose
COLO 205 = details: Homo sapiens, COLO 205, growth inhibition, one dose
OVCAR-8 = details: Homo sapiens, OVCAR-8, growth inhibition, one dose
SK-OV-3 = details: Homo sapiens, SK-OV-3, growth inhibition, one dose
SF-295 = details: Homo sapiens, SF-295, growth inhibition, one dose
DU-145 = details: Homo sapiens, DU-145, growth inhibition, one dose
UACC-257 = details: Homo sapiens, UACC-257, growth inhibition, one dose
U251 = details: Homo sapiens, U-251, growth inhibition, one dose
MDA-MB-468 = details: Homo sapiens, MDA-MB-468, growth inhibition, one dose
[1] = read-out: Growth% inhibition / 5d
[2] = read-out: Growth% inhibition / 5a
[3] = read-out: Growth% inhibition / 5b
[4] = read-out: Growth% inhibition / 5e
[5] = read-out: Growth% inhibition / 5h

Question: Which results are given for `CN(C)c1ccc(C=NNC(=O)/C=C/C=C/c2ccc3c(c2)OCO3)cc1` (mixture of isomers) [5d, (2E,4E)-5-(Benzo[d][1,3]dioxol-5-yl)-N′-((E/Z)-4-(dimethylamino)-benzylidene)penta-2,4-dienehydrazide]?
Answer: inhibition at 10 µM (MCF7; [1]): 43.6%; inhibition at 10 µM (CAKI-1; [1]): 24.6%

Question: With `O=C(/C=C/C=C/c1ccc2c(c1)OCO2)NN=Cc1ccc(O)cc1` [5a, (2E,4E)-5-(Benzo[d][1,3]dioxol-5-yl)-N′-((E,Z)-4-hydroxybenzylidene)penta-2,4-dienehydrazide] as the molecule, how does the inhibition at 10 µM (MCF7; [2]) read?
Answer: 28.8%

Question: And the inhibition at 10 µM (CAKI-1; [2])?
Answer: 25.1%

Question: And the inhibition at 10 µM (SF-268; [2])?
Answer: 17.1%

Question: What does the source list for `O=C(/C=C/C=C/c1ccc2c(c1)OCO2)N/N=C/c1ccc(O)cc1O` [5b, (2E,4E)-5-(Benzo[d][1,3]dioxol-5-yl)-N′-((E)-2,4-dihydroxybenzylidene)penta-2,4-dienehydrazide]?
Answer: inhibition at 10 µM (RXF 393; [3]): 42.1%; inhibition at 10 µM (HT29; [3]): 51.9%; inhibition at 10 µM (NCI-H23; [3]): 70%; inhibition at 10 µM (TK-10; [3]): 69%; inhibition at 10 µM (COLO 205; [3]): 86%; inhibition at 10 µM (OVCAR-8; [3]): 77.2%; inhibition at 10 µM (SK-OV-3; [3]): 73%; inhibition at 10 µM (SF-295; [3]): 86.2%; inhibition at 10 µM (MCF7; [3]): 85.9%; inhibition at 10 µM (CAKI-1; [3]): 90.3%; inhibition at 10 µM (SF-268; [3]): 75.6%; inhibition at 10 µM (DU-145; [3]): 50%; inhibition at 10 µM (UACC-257; [3]): 71.5%; inhibition at 10 µM (U251; [3]): 68.7%

Question: Which inhibition at 10 µM (RXF 393; [4]) does the source give for `CCN(CC)c1ccc(/C=N/NC(=O)/C=C/C=C/c2ccc3c(c2)OCO3)c(O)c1` [5e, (2E,4E)-5-(Benzo[d][1,3]dioxol-5-yl)-N′-((E)-4-(diethylamino)-2-hydroxybenzylidene)penta-2,4-dienehydrazide] here?
Answer: 27.4%

Question: What about the inhibition at 10 µM (HT29; [4]) of the same molecule?
Answer: 32.2%

Question: What about the inhibition at 10 µM (NCI-H23; [4]) of the same molecule?
Answer: 50.3%

Question: What about the inhibition at 10 µM (TK-10; [4]) of the same molecule?
Answer: 62.2%

Question: And the inhibition at 10 µM (COLO 205; [4])?
Answer: 60.1%

Question: And the inhibition at 10 µM (OVCAR-8; [4])?
Answer: 67.1%

Question: And the inhibition at 10 µM (SK-OV-3; [4])?
Answer: 60.5%

Question: What about the inhibition at 10 µM (SF-295; [4]) of the same molecule?
Answer: 58.3%

Question: And the inhibition at 10 µM (MCF7; [4])?
Answer: 80.5%

Question: What about the inhibition at 10 µM (MDA-MB-468; [4]) of the same molecule?
Answer: 86.6%

Question: What about the inhibition at 10 µM (CAKI-1; [4]) of the same molecule?
Answer: 70.7%

Question: And the inhibition at 10 µM (SF-268; [4])?
Answer: 66.3%

Question: What about the inhibition at 10 µM (DU-145; [4]) of the same molecule?
Answer: 46.8%

Question: And the inhibition at 10 µM (UACC-257; [4])?
Answer: 75.8%

Question: What about the inhibition at 10 µM (U251; [4]) of the same molecule?
Answer: 56.8%

Question: With `C/C(=N\NC(=O)/C=C/C=C/c1ccc2c(c1)OCO2)c1ccc(Br)cc1` [5h, (2E,4E)-5-(Benzo[d][1,3]dioxol-5-yl)-N′-((E)-1-(4-bromophenyl)ethylidene)penta-2,4-dienehydrazide] as the molecule, how does the inhibition at 10 µM (OVCAR-8; [5]) read?
Answer: 24.7%

Question: And the inhibition at 10 µM (MCF7; [5])?
Answer: 38.7%

Question: And the inhibition at 10 µM (MDA-MB-468; [5])?
Answer: 29.3%

Question: And the inhibition at 10 µM (CAKI-1; [5])?
Answer: 28.1%

Question: What about the inhibition at 10 µM (SF-268; [5]) of the same molecule?
Answer: 32.5%

Question: And the inhibition at 10 µM (DU-145; [5])?
Answer: 44%

Question: What about the inhibition at 10 µM (UACC-257; [5]) of the same molecule?
Answer: 12%

Question: What about the inhibition at 10 µM (U251; [5]) of the same molecule?
Answer: 16%
